Measured values as given in ChEMBL document CHEMBL5465560, “Selectivity Literature for EUbOPEN Chemogenomic Library” (2024).

Key:
[1] = target: Mitogen-activated protein kinase 4 (Homo sapiens) (UniProt P31152); experiment: Selectivity interaction (KinomeScan (DiscoverX)) EUB0000229b MAPK4; conditions: at 10 µM
[2] = target: Tyrosine-protein kinase Fes/Fps (Homo sapiens) (UniProt P07332); experiment: Selectivity interaction (KinomeScan (DiscoverX)) EUB0000045b FES
[3] = target: Cyclin-dependent kinase 18 (Homo sapiens) (UniProt Q07002); experiment: Selectivity interaction (KinomeScan (DiscoverX)) EUB0001079a CDK18; conditions: at 1 µM
Cyclin-dependent kinase 18 (Homo sapiens), sequence (Q07002 whole entry): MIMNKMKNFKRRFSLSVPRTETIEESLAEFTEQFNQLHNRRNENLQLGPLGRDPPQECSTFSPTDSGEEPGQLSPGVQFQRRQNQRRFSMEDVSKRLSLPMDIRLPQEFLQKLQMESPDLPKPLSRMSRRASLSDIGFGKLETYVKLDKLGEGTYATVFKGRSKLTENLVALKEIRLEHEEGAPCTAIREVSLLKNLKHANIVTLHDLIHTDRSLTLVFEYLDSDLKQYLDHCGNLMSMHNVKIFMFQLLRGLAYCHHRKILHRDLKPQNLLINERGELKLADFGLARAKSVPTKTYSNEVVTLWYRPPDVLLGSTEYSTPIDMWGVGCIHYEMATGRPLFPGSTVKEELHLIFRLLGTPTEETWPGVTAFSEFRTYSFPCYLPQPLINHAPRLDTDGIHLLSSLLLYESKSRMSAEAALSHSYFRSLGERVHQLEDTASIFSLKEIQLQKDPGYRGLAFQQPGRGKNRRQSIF

[4] = target: Protein kinase C eta type (Homo sapiens) (UniProt P24723); experiment: Selectivity interaction (KinomeScan (DiscoverX)) EUB0001079a PRKCH; conditions: at 1 µM
Protein kinase C eta type (Homo sapiens), sequence (P24723 whole entry): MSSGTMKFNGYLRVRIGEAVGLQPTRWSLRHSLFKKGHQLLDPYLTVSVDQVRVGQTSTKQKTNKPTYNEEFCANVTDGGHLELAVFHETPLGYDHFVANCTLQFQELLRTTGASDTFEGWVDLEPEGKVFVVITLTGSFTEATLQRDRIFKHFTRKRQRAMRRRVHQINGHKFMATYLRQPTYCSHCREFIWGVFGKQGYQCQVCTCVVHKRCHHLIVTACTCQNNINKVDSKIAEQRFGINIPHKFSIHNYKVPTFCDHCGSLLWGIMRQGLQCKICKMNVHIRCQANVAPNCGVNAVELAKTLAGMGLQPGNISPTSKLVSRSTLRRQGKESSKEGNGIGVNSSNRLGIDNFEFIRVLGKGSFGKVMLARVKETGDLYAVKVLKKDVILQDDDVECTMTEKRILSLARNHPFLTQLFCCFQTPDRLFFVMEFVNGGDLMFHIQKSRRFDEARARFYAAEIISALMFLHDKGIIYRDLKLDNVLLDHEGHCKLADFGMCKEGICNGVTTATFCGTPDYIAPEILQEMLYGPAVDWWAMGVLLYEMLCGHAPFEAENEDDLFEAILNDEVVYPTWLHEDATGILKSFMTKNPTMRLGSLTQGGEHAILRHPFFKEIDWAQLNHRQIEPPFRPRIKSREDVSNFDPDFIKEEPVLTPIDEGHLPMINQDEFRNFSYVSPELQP

Insulin receptor = Insulin receptor (Homo sapiens, UniProt P06213); conditions: at 10 µM
Insulin receptor, sequence (P06213 28-758 limits assumed): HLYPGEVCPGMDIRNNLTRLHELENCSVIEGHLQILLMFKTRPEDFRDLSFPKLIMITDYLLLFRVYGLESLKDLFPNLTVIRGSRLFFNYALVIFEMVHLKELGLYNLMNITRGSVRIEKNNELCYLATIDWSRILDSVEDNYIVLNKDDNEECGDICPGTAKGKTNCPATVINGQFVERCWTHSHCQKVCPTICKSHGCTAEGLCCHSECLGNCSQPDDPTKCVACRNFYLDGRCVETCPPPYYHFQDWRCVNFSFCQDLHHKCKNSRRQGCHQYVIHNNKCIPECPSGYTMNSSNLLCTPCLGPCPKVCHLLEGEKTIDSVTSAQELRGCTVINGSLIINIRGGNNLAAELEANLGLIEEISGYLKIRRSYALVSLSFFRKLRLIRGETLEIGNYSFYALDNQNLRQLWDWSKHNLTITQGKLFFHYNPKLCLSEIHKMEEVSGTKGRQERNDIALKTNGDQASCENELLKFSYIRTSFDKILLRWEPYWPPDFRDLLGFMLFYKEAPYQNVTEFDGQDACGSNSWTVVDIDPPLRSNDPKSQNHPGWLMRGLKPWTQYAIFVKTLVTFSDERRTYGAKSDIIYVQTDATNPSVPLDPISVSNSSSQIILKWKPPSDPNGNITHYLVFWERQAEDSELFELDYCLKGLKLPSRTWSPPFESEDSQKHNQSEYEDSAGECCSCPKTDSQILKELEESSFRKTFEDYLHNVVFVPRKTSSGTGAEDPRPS
Insulin receptor, sequence (P06213 763-1382 limits assumed): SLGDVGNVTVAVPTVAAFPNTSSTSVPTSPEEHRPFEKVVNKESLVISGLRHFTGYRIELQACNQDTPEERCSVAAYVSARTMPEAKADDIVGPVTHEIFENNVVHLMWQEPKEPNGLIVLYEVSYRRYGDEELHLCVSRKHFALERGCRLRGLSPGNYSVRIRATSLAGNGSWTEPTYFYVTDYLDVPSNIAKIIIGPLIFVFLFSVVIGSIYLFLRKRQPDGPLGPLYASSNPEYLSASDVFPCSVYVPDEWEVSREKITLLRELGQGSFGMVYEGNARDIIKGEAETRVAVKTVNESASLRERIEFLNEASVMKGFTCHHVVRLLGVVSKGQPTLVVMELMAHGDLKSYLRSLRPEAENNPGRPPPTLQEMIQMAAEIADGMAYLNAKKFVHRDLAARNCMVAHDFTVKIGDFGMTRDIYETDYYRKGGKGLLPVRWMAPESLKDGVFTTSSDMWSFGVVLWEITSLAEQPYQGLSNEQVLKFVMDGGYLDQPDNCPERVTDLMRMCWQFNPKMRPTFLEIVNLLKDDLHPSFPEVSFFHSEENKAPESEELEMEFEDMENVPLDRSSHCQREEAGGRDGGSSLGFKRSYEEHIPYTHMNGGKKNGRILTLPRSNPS

[5] = target: AP2-associated protein kinase 1 (Homo sapiens, UniProt Q2M2I8); conditions: at 10 µM
AP2-associated protein kinase 1, sequence (Q2M2I8 whole entry, looked up): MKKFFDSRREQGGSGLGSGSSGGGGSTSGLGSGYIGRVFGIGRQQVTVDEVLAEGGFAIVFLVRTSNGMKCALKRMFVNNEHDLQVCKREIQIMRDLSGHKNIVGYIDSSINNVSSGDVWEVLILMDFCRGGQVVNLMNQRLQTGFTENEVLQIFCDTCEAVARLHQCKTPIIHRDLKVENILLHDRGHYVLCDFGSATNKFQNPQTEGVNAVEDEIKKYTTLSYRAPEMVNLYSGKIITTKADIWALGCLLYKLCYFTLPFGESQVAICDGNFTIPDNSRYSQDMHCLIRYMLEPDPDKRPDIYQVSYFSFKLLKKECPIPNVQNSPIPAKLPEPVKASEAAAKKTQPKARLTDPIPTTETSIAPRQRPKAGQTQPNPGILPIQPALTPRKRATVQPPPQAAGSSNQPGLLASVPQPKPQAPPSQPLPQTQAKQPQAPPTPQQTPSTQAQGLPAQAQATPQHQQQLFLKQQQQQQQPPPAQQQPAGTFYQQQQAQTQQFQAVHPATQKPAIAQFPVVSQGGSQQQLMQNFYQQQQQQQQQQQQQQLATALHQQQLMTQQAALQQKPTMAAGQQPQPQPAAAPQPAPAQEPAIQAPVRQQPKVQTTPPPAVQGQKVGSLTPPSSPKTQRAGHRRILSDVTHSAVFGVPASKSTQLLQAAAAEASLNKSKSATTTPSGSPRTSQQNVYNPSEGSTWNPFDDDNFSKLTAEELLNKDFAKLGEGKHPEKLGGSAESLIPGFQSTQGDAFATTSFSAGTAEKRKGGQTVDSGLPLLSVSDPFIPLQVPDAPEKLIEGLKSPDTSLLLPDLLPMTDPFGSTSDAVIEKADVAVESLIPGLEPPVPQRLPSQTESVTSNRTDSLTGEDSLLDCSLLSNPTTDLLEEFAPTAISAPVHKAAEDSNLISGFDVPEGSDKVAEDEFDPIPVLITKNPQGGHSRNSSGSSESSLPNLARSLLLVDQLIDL

[6] = target: T1, Mitogen-activated protein kinase kinase kinase 5 (Homo sapiens) (UniProt Q99683); experiment: Selectivity interaction (Kinase panel (DSF assay)) EUB0001489b MAP3K5
T1 sequence (whole entry): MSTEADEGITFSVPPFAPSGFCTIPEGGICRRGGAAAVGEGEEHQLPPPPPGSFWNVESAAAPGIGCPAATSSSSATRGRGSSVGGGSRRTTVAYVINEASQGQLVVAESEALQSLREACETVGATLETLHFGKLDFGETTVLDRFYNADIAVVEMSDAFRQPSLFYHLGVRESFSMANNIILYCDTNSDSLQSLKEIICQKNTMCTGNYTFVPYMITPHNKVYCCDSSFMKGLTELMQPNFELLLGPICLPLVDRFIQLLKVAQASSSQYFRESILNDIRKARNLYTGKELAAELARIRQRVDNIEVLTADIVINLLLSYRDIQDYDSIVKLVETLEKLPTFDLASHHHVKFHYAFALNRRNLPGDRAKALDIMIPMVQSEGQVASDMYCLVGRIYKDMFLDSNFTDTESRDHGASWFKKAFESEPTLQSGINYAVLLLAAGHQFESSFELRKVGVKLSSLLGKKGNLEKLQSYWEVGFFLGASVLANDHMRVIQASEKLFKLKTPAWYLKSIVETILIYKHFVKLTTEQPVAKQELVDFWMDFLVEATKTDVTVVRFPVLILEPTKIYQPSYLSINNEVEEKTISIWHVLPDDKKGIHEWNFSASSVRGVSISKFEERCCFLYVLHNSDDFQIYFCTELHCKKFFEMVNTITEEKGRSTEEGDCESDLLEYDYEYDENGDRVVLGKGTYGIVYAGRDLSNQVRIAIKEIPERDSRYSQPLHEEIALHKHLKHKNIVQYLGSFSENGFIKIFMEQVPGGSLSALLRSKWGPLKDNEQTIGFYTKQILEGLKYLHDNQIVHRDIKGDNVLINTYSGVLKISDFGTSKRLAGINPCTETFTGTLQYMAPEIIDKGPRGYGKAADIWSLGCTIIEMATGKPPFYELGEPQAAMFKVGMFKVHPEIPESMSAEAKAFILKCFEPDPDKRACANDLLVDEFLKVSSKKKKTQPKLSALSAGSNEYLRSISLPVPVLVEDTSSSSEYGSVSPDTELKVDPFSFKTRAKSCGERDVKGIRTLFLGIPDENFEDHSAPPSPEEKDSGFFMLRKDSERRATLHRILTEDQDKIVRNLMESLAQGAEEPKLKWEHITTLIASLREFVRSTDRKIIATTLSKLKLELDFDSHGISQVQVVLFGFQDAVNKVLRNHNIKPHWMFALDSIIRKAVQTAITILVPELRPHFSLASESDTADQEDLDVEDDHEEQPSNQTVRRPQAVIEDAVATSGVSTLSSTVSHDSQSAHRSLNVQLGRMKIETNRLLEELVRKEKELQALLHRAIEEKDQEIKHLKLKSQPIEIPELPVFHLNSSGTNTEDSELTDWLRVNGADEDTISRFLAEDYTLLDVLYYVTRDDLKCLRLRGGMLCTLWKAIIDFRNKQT

[7] = target: T2, Serine/threonine-protein kinase TBK1 (Homo sapiens) (UniProt Q9UHD2); experiment: Selectivity interaction (ActivX KiNativ screen (kinase selectivity in THP-1 cell lysates)) EUB0000639a TBK1; type: subcellular; conditions: lysate, at 5 µM
T2 sequence (whole entry): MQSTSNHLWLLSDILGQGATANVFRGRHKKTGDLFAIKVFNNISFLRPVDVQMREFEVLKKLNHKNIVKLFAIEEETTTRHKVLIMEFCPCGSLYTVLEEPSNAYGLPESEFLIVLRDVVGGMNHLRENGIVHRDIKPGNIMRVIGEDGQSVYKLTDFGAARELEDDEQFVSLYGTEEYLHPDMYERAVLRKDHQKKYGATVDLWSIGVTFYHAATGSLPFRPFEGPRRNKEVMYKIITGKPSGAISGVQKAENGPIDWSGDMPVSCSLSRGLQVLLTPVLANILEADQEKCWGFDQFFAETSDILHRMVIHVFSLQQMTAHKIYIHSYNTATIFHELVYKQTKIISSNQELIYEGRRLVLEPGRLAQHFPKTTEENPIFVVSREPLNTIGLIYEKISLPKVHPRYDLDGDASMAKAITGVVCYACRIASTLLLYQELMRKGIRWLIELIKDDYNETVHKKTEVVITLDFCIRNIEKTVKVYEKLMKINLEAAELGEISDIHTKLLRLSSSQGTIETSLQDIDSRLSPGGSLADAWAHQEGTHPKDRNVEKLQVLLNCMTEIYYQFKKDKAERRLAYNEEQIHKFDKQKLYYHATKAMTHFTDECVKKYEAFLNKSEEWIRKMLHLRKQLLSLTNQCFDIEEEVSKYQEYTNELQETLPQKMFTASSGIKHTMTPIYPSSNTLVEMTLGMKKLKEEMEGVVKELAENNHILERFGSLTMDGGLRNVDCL

[8] = target: T3, MAP kinase-activated protein kinase 5 (Homo sapiens) (UniProt Q8IW41); experiment: Selectivity interaction (KinomeScan (DiscoverX)) EUB0000092b MAPKAPK5; conditions: at 10 µM
T3 sequence (whole entry): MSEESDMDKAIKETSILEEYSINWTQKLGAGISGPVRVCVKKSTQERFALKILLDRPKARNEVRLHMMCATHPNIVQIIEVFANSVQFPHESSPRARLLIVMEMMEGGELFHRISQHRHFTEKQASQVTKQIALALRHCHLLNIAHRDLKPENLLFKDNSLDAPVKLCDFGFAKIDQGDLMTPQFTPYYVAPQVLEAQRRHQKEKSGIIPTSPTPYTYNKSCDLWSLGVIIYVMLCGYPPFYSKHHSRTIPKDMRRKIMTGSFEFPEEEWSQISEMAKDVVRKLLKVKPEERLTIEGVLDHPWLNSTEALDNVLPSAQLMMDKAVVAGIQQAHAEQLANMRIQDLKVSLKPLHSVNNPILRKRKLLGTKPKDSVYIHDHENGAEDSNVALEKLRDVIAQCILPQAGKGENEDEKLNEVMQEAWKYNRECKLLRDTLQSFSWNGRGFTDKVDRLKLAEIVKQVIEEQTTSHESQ

Tyrosine-protein kinase Fes/Fps (Homo sapiens), sequence (P07332 whole entry): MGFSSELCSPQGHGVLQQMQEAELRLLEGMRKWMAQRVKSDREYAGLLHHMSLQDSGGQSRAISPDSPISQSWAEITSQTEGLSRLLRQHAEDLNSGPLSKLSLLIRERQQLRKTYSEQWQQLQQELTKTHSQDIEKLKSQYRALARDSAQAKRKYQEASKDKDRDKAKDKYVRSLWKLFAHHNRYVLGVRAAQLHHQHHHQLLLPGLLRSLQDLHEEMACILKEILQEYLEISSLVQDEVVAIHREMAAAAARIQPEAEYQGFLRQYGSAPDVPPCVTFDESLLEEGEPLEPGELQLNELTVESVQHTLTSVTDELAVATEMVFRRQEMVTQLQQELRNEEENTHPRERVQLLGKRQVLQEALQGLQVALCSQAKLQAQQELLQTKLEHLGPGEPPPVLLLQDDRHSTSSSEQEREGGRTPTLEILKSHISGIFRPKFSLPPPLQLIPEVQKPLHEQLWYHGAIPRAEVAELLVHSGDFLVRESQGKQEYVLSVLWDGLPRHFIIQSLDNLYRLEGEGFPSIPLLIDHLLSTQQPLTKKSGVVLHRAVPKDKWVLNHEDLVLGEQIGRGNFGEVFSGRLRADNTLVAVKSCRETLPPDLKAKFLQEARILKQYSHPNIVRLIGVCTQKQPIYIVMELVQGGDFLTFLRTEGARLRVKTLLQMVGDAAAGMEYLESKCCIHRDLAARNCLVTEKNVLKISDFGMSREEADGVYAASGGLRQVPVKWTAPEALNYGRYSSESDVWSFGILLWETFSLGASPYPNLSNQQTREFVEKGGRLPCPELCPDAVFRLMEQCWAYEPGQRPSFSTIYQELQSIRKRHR
Mitogen-activated protein kinase 4 (Homo sapiens), sequence (P31152 whole entry): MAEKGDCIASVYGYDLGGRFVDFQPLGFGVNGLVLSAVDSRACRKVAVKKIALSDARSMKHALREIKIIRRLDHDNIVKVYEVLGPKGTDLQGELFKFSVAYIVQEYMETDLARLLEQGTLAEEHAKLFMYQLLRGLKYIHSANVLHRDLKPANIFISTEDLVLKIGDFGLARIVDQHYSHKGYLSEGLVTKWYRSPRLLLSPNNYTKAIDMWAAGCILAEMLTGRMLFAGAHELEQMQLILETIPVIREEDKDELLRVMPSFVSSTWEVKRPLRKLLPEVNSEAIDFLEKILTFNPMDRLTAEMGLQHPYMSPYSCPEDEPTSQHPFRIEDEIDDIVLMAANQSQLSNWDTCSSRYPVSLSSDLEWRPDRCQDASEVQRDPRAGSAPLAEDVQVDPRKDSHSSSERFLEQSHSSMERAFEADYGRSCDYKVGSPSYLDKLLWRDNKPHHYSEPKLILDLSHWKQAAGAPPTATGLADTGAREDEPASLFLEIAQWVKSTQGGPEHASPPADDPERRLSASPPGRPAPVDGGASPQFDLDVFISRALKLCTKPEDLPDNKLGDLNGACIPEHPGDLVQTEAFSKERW

## COc1cc(N(C)c2ccnc3ccc(C(F)(F)F)cc23)cc(OC)c1OC
[1]
  % binding: 93%

## C=CC(=O)Nc1cc(-n2c(=O)ccc3cnc4ccc(-c5ccc(NS(C)(=O)=O)cc5)cc4c32)ccc1C
[2]; at 1 µM
  % of control: 92%
[2]; at 10 µM
  % of control: 100%

## Nc1cnc(N2CCc3cc(S(=O)(=O)Nc4c(F)cc(Cl)cc4F)cc(N4CCCC4=O)c32)nc1 [TP-020n]
[3]
  % of control: 100%
[4]
  % of control: 80%

## Cc1cc([C@@H](C)Nc2ccccc2C(=O)O)c2nc(N3CCOCC3)cc(=O)n2c1 [AZD-6482]
Insulin receptor
  % of control: 100%
[5]
  % of control: 95%

## CN1CCN(C(=O)c2ccc3cc2OCCOCCNc2ccn4ncc-3c4n2)CC1
[6]
  dTM: 3.2 K

## CC[C@@H]1[C@H](F)C(=O)N[C@@H]1COc1nccc2cc(C(N)=O)c(OC)cc12 [ZIMLOVISERTIB]
[7]
  % of inhibition: 23.9%

## CCC(=O)N1CCN(c2ccc(-n3c(=O)ccc4cnc5ccc(-c6cnc7ccccc7c6)cc5c43)cc2C(F)(F)F)CC1
[8]
  % of control: 100%
